Reference: ChEMBL document CHEMBL6096634, “Exploration of novel 20S proteasome activators featuring anthraquinone structures and their application in hypoxic cardiomyocyte protection” (Bioorg Med Chem, 2024)
Calls of active or inactive are those of the source. The rule behind the calls is not given here.

How the values were obtained:
[1] = molecular target: T1, 20S proteasome (Homo sapiens) (UniProt P49721+P20618+P28074+P28062+P28065+P28072+P25786+P25787+P25788+P25789+P28066+P60900+O14818+Q8TAA3+P40306+A5LHX3+P49720+P28070+Q99436); assay: (§1) Activation of human erythrocyte-derived 20s proteosome using CT-L as peptide substrate by fluorescence based analysis; type: cell-based; details: for EC200: filed as activator
20S proteasome = assay: as §1; type: cell-based
[2] = molecular target: T1, 20S proteasome (Homo sapiens); assay: Activation of human erythrocyte-derived 20s proteosome using T-L as peptide substrate by fluorescence based analysis; type: cell-based; details: filed as activator
[3] = molecular target: T1, 20S proteasome (Homo sapiens); assay: Activation of human erythrocyte-derived 20s proteosome using CT-L as peptide substrate at 10 uM by fluorescence based analysis relative to control; type: cell-based; details: filed as activator
H9c2 [4] = assay: Protection against hypoxia-induced cell damage in rat H9c2 cells at 0.025 uM incubated for 14 hrs by MTT assay; type: functional, cell-based
H9c2 [5] = assay: Upregulation of Ki-67 expression in rat H9c2 cells at 0.25 uM under normoxic condition by qRT-PCR analysis; type: functional, cell-based
H9c2 [6] = assay: Upregulation of Ki-67 expression in rat H9c2 cells at 0.25 uM under hypoxic condition by qRT-PCR analysis; type: functional, cell-based
H9c2 [7] = assay: Effect on PCNA expression in rat H9c2 cells at 0.25 uM under normoxic condition by qRT-PCR analysis; type: functional, cell-based
H9c2 [8] = assay: Effect on PCNA expression in rat H9c2 cells at 0.25 uM under hypoxic condition by qRT-PCR analysis; type: functional, cell-based
HEK293 = assay: Inhibition of […]-induced ER stress in HEK293 cells harbouring XBP1-delta DBD-Luc cells assessed as decrease in luciferase activity incubated for 8 hrs by […]; type: functional, cell-based; details: Homo sapiens, dose 10-20 µM
H9c2 [9] = assay: Protection against hypoxia-induced cell damage in rat H9c2 cells at 0.05 uM incubated for 14 hrs by MTT assay; type: functional, cell-based
[10] = molecular target: T1, 20S proteasome (Homo sapiens); assay: Activation of 20s proteosome (unknown origin) mediated chymotrypsin-like activity; type: protein-complex assay; details: filed as activator
[11] = molecular target: T1, 20S proteasome (Homo sapiens); assay: Activation of 20s proteosome (unknown origin) mediated chymotrypsin-like activity assessed as fold maximum enhancement; type: protein-complex assay; details: filed as activator
H9c2 [12] = assay: Protection against hypoxia-induced cell damage in rat H9c2 cells at 0.1 uM incubated for 14 hrs by MTT assay; type: functional, cell-based
H9c2 [13] = assay: Anti-apoptotic activity in rat H9c2 cells at 0.1 uM preincubated for 24 hrs followed by incubation under normoxic condition for 18 hrs by Annexin V-FITC and PI staining based flow cytometry analysis; type: functional, cell-based; details: time 42.0 hrs
H9c2 [14] = assay: Anti-apoptotic activity in rat H9c2 cells at 0.1 uM preincubated for 24 hrs followed by incubation under hypoxic condition for 18 hrs by Annexin V-FITC and PI staining based flow cytometry analysis; type: functional, cell-based; details: time 42.0 hrs
H9c2 [15] = assay: Anti-apoptotic activity in rat H9c2 cells at 0.1 uM under normoxic condition by TUNEL staining based analysis; type: functional, cell-based
H9c2 [16] = assay: Anti-apoptotic activity in rat H9c2 cells at 0.1 uM under hypoxic condition by TUNEL staining based analysis; type: functional, cell-based
H9c2 [17] = assay: Anti-apoptotic activity in rat H9c2 cells assessed as viable cells at 0.1 uM preincubated for 24 hrs followed by incubation under normoxic condition for 18 hrs by Annexin V-FITC and PI staining based flow cytometry analysis (reference value: 94.7%); type: functional; details: time 42 hrs, read-out: Activity
H9c2 [18] = assay: Anti-apoptotic activity in rat H9c2 cells assessed as early apoptotic cells at 0.1 uM preincubated for 24 hrs followed by incubation under normoxic condition for 18 hrs by Annexin V-FITC and PI staining based flow cytometry analysis (reference value: 0.75%); type: functional; details: time 42 hrs
H9c2 [19] = assay: Anti-apoptotic activity in rat H9c2 cells assessed as late apoptotic cells at 0.1 uM preincubated for 24 hrs followed by incubation under normoxic condition for 18 hrs by Annexin V-FITC and PI staining based flow cytometry analysis (reference value: 3.68%); type: functional; details: time 42 hrs
H9c2 [20] = assay: Anti-apoptotic activity in rat H9c2 cells assessed as necrotic cells at 0.1 uM preincubated for 24 hrs followed by incubation under normoxic condition for 18 hrs by Annexin V-FITC and PI staining based flow cytometry analysis (reference value: 0.60%); type: functional; details: time 42 hrs
H9c2 [21] = assay: Anti-apoptotic activity in rat H9c2 cells assessed as viable cells at 0.1 uM preincubated for 24 hrs followed by incubation under hypoxic condition for 18 hrs by Annexin V-FITC and PI staining based flow cytometry analysis (reference value: 85.85%); type: functional; details: time 42 hrs, read-out: Activity
H9c2 [22] = assay: Anti-apoptotic activity in rat H9c2 cells assessed as early apoptotic cells at 0.1 uM preincubated for 24 hrs followed by incubation under hypoxic condition for 18 hrs by Annexin V-FITC and PI staining based flow cytometry analysis (reference value: 4.06%); type: functional; details: time 42 hrs
H9c2 [23] = assay: Anti-apoptotic activity in rat H9c2 cells assessed as late apoptotic cells at 0.1 uM preincubated for 24 hrs followed by incubation under hypoxic condition for 18 hrs by Annexin V-FITC and PI staining based flow cytometry analysis (reference value: 8.60%); type: functional; details: time 42 hrs
H9c2 [24] = assay: Anti-apoptotic activity in rat H9c2 cells assessed as necrotic cells at 0.1 uM preincubated for 24 hrs followed by incubation under hypoxic condition for 18 hrs by Annexin V-FITC and PI staining based flow cytometry analysis (reference value: 0.50%); type: functional; details: time 42 hrs
H9c2 [25] = assay: Upregulation of Ki-67 expression in rat H9c2 cells at 0.1 uM under normoxic condition by qRT-PCR analysis; type: functional, cell-based
H9c2 [26] = assay: Upregulation of Ki-67 expression in rat H9c2 cells at 0.1 uM under hypoxic condition by qRT-PCR analysis; type: functional, cell-based
H9c2 [27] = assay: Effect on PCNA expression in rat H9c2 cells at 0.1 uM under normoxic condition by qRT-PCR analysis; type: functional, cell-based
H9c2 [28] = assay: Effect on PCNA expression in rat H9c2 cells at 0.1 uM under hypoxic condition by qRT-PCR analysis; type: functional, cell-based

| Structure (SMILES) | EC200 [1] [µM] | EC50 (20S proteasome) [µM] | fold change (FC) [2] | Activity [3] [%] | Activity [1] | other results |
| --- | --- | --- | --- | --- | --- | --- |
| CC(C)CNC(=O)c1cc(O)c2c(c1)C(=O)c1cccc(O)c1C2=O | 2.15 | 2.57 | 2.23 | 376 | – | – |
| COc1ccc(Nc2cc(NCC(C)C)c(N)c3c2C(=O)c2ccccc2C3=O)cc1 | 0.61 | 1.57 | 5.03 | 360 | – | Activity (H9c2 [4]): Active; Activity (H9c2 [5]): Active; Activity (H9c2 [6]): Active; Activity (H9c2 [7]): inactive; Activity (H9c2 [8]): inactive; inhibition (HEK293): Active |
| CC(C)CNc1cc(Nc2ccc(N3CCOCC3)cc2)c2c3c(onc13)-c1ccccc1C2=O | 0.12 | 1.33 | 5.83 | 425 | – | Activity (H9c2 [9]): Active; inhibition (HEK293): Active |
| Cc1cccc(Nc2cc(NCCO)c3noc4c3c2C(=O)c2ccccc2-4)c1 | – | – | – | 119 | inactive | – |
| Cc1cccc(Nc2cc(NCCN3CCOCC3)c3noc4c3c2C(=O)c2ccccc2-4)c1 | – | – | – | 47.9 | inactive | – |
| O=C(NCCN1CCOCC1)c1cc(O)c2c(c1)C(=O)c1cccc(O)c1C2=O | – | – | – | 68.6 | inactive | – |
| O=C(Nc1ccc(N2CCOCC2)cc1)c1cc(O)c2c(c1)C(=O)c1cccc(O)c1C2=O | 0.2 | 1.8 | 6.36 | 552 | – | Activity (H9c2 [4]): Active |
| O=C1c2ccccc2-c2onc3c(NCN4CCCCC4)cc(NCN4CCCCC4)c1c23 | – | – | – | 78.4 | inactive | – |
| CCOC(=O)[C@]1(c2ccccc2)N=C(c2ccc(OC)cc2)N(Cc2ccccc2)[C@@H]1c1ccc(NCc2ccccc2)cc1 | 0.91 | – | 4.31 | 438 | – | EC200 [10]: 1.4 µM; fold change (FC) [11]: 8.3 |
| Cc1ccccc1Nc1cc(NCC(C)C)c2noc3c2c1C(=O)c1ccccc1-3 | 0.67 | 3.38 | 6.38 | 486 | – | Activity (H9c2 [9]): Active; Activity (H9c2 [12]): Active; Activity (H9c2 [13]): inactive; Activity (H9c2 [14]): Active; Activity (H9c2 [15]): inactive; Activity (H9c2 [16]): Active; viability at 0.1 µM (H9c2 [17]): 94.6%; Activity (H9c2 [18]): 0.65%; Activity (H9c2 [19]): 3.53%; Activity (H9c2 [20]): 1.3%; viability at 0.1 µM (H9c2 [21]): 92.8%; Activity (H9c2 [22]): 1.18%; Activity (H9c2 [23]): 4.73%; Activity (H9c2 [24]): 1.34%; Activity (H9c2 [25]): Active; Activity (H9c2 [26]): Active; Activity (H9c2 [27]): inactive; Activity (H9c2 [28]): inactive; inhibition (HEK293): Active |
| CCCNc1cc(Nc2cccc(C)c2)c2c3c(onc13)-c1ccccc1C2=O | 0.4 | 4.36 | 10.6 | 594 | – | – |
| Cc1cccc(Nc2cc(NCCC(C)C)c3noc4c3c2C(=O)c2ccccc2-4)c1 | 0.19 | 2.09 | 2.08 | 175 | – | – |
